How the values were obtained:
[1] = tested on: leukemic T cells (Jurkat); conditions: cited from earlier work
A549 cells = test: Alamar Blue proliferation assay, lung cancer cells; format: cell-based, human; conditions: hsa-miR-34a 30 nM, lipid transfection, 72 hours, normalized to NC (100%)
From the text: (§1) The inventors assessed the therapeutic effect of hsa-miR-34a for lung cancer by using eight individual lung cancer cell lines. To measure cellular proliferation of lung cancer cells, the following non-small cell lung cancer (NSCLC) cells were used: cells derived from lung adenocarcinoma (A549, H522, Calu-3, HCC2935), cells derived from lung squamous cell carcinoma (H226), cell derived from lung adenosquamous cell carcinoma (H596), cells derived from lung bronchioalveolar carcinoma (H1650), and cells derived from lung large cell carcinoma (H460). Synthetic hsa-miR-34a (Pre-miR™-hsa-miR-34a, Ambion cat. no. AM17100) or negative control (NC) miRNA (Pre-miR™ microRNA Precursor Molecule-Negative Control #2; Ambion cat. no. AM17111) was delivered via lipid-based transfection into A549, H522, H596, Calu-3, HCC2935, H1650, H460 cells and via electroporation into H226 cells.
(§2) Lipid-based reverse transfections were carried out in triplicate according to a published protocol (Ovcharenko et al., 2005) and the following parameters: cells (5,000-12,000 per 96 well), 0.1-0.2 μl Lipofectamine™ 2000 (cat. no. 11668-019, Invitrogen Corp., Carlsbad, Calif., USA) in 20 μl OptiMEM (Invitrogen), 30 nM final concentration of miRNA in 100 μl. Electroporation of H226 cells was carried out using the BioRad Gene Pulser Xcell™ instrument (BioRad Laboratories Inc., Hercules, Calif., USA) with the following settings: 5×10^6 cells with 5 μg miRNA in 200 μl OptiMEM (1.6 μM miRNA), square wave pulse at 250 V for 5 ms. Electroporated H226 cells were seeded at 7,000 cells per 96-well in a total volume of 100 μl. All cells except for Calu-3 cells were harvested 72 hours post transfection or electroporation for assessment of cellular proliferation. Calu-3 cells were harvested 10 days post transfection. Proliferation assays were performed using Alamar Blue (Invitrogen) following the manufacturer's instructions. As a control for inhibition of cellular proliferation, siRNA against the motor protein kinesin 11, also known as Eg5, was used. Eg5 is essential for cellular survival of most eukaryotic cells and a lack thereof leads to reduced cell proliferation and cell death (Weil et al., 2002). siEg5 was used in lipid-based transfection following the same experimental parameters that apply to miRNA. The inventors also used a DNA topoisomerase II inhibitor, etoposide, at a final concentration of 10 μM and 50 μM as an internal standard for the potency of miRNAs. Etoposide is an FDA-approved DNA topoisomerase II inhibitor in the treatment of lung cancer. […] Percent (%) proliferation values from the Alamar Blue assay were normalized to values from cells treated with negative control miRNA. Percent proliferation of hsa-miR-34a treated cells relative to cells treated with negative control miRNA (100%) is shown in Table 7 and in FIG. 1.

Calu-3 cells = test: Alamar Blue proliferation assay, lung cancer cells; format: cell-based, human; conditions: 10 days post transfection
From the text: as §1, §2

H596 cells = test: Alamar Blue proliferation assay, lung cancer cells; format: cell-based, human; conditions: hsa-miR-34a 30 nM, lipid transfection, 72 hours, normalized to NC (100%)
From the text: as §1, §2

H1650 cells = test: Alamar Blue proliferation assay, lung cancer cells; format: cell-based, human; conditions: hsa-miR-34a 30 nM, lipid transfection, 72 hours, normalized to NC (100%)
From the text: as §1, §2

H522 cells = test: Alamar Blue proliferation assay, lung cancer cells; format: cell-based, human; conditions: hsa-miR-34a 30 nM, lipid transfection, 72 hours, normalized to NC (100%)
From the text: as §1, §2

HCC2935 cells = test: Alamar Blue proliferation assay, lung cancer cells; format: cell-based, human; conditions: hsa-miR-34a 30 nM, lipid transfection, 72 hours, normalized to NC (100%)
From the text: as §1, §2

H460 cells = test: Alamar Blue proliferation assay, lung cancer cells; format: cell-based, human; conditions: hsa-miR-34a 30 nM, lipid transfection, 72 hours, normalized to NC (100%)
From the text: as §1, §2

[2] = tested on: basal cell carcinoma cells (TE354T); conditions: cited from earlier work
Jurkat = conditions: cited from earlier work
[3] = tested on: prostate cancer cells PPC-1, Du145, LNCaP and RWPE2; test: Alamar Blue proliferation assay, average over four prostate cancer cell lines; format: cell-based, human
From the text: The inventors assessed the therapeutic effect of hsa-miR-34a for prostate cancer by using four individual human prostate cancer cell lines. To measure cellular proliferation of prostate cancer cells, the following prostate cancer cell lines were used: PPC-1, derived from a bone metastasis; Du145, derived from a brain metastasis; RWPE2, derived from prostate cells immortalized by human papillomavirus 18 and transformed by the K-RAS oncogene; and LNCaP, derived from a lymph node metastasis (Bello et al., 1997; Pretlow et al., 1993; Stone et al., 1978; Brothman et al., 1991; Horoszewicz et al., 1980). PPC-1 and Du145 cells lack expression of the prostate-specific antigen (PSA) and are independent of androgen receptor (AR) signaling. In contrast, RWPE2 and LNCaP cells test positive for PSA and AR. Cells were transfected with synthetic hsa-miR-34a (Pre-miR™-hsa-miR-34a, Ambion cat. no. AM17100) or negative control miRNA (NC; Pre-miR™ microRNA Precursor Molecule-Negative Control #2; Ambion cat. no. AM17111) in a 96-well format using a lipid-based transfection reagent. […] Proliferation was assessed 4-7 days post-transfection using Alamar Blue™ (Invitrogen) following the manufacturer's instructions. […] Fluorescent light units (FLU) were measured after 3 hours, normalized to the control, and plotted as percent change in proliferation. […]

HeLa = conditions: cited from earlier work
[4] = tested on: prostate cancer cells (22Rv1); conditions: cited from earlier work

hsa-miR-34a: synthetic miRNA; mature sequence UGGCAGUGUCUUAGCUGGUUGUU (MIMAT0000255; SEQ ID NO:1) (synthetic miRNA, chemistry not given here)
proliferation [1]: inhibits the proliferation
% proliferation (A549 cells): 75.95%
% proliferation (Calu-3 cells; Calu-3, hsa-miR-34a 30 nM, lipid transfection, normalized to NC (100%)): 28.51%
reduction of proliferation (Calu-3 cells; Calu-3 cells, 30 nM, relative to negative control miRNA): 71.49%
% proliferation (H596 cells): 73.19%
% proliferation (H1650 cells): 78.37%
% proliferation (H522 cells): 94.41%
% proliferation (HCC2935 cells): 80.19%
% proliferation (H460 cells): 77.46%
proliferation [2]: inhibits the proliferation
programmed cell death (apoptosis) (Jurkat): increased
average inhibition of cellular proliferation ([3]; average over four prostate cancer cell lines, 30 nM, relative to negative control miRNA): 37.18%
growth-inhibitory activity compared with siEg5 ([3]; prostate cancer cell lines): comparable to that of Eg5-directed siRNA
programmed cell death (apoptosis) (HeLa): decreased
proliferation [4]: inhibits the proliferation

Reference: patent publication US20090227533A1, “miR-34 Regulated Genes and Pathways as Targets for Therapeutic Intervention” (priority 2007, published 2009)
